Series [1] in a line: logP by HPLC on reversed-phase column (EEC Directive 79/831 Annex V.A8). Particulars: for logP: HPLC, reversed-phase column (C 18), 40° C., 0.1% aqueous formic acid and acetonitrile, linear gradient 10% to 90% acetonitrile.
Another series has as its system Sphaerotheca fuliginea. Description: In vivo preventive test on Sphaerotheca fuliginea (cucumber), Example G. Particulars: 10 ppm of active ingredient, evaluated 7 days after inoculation. The text has this:
After the spray coating has dried on, the plants are inoculated with an aqueous spore suspension of Sphaerotheca fuliginea.

The test system of another series is Tetranychus urticae. As to the kind of experiment: Spray application test on Tetranychus urticae. Particulars: 500 g of active ingredient/ha; after 6 days. The class given is in vivo. As to the method: Solvent: 78.0 parts by weight acetone • 1.5 parts by weight dimethylformamide
Emulsifier: 0.5 parts by weight alkylarylpolyglcolether
French beans (Phaseolus vulgaris) which are heavily infested with all stages of the two spotted spidermite (Tetranychus urticae), are sprayed with a preparation of the active ingredient at the desired concentration.
After 6 days, mortality in % is determined. 100% means that all spider mites have been killed and 0% means that none of the spider mites have been killed.

A further series relates to Fusarium nivale. As to the kind of experiment: In vivo curative test on Fusarium nivale (wheat). Conditions: 500 ppm of active ingredient, evaluated 8 days after inoculation.
The subject of a further series is Meloidogyne incognita. Description: Test on Meloidogyne incognita. Particulars: 20 ppm of active ingredient; after 14 days. The class given is in vivo. On the procedure:
Solvent: 80.0 parts by weight of acetone
Vessels are filled with sand, a solution of the active ingredient, a suspension containing eggs and larvae of Meloidogyne incognita and salad seeds. The salad seeds germinate and the seedlings grow. Galls develop in the roots.
After 14 days the nematicidal activity is determined on the basis of the percentage of gall formation. 100% means that no galls were found; 0% means that the number of galls found on the roots of the treated plants was equal to that in untreated control plants.

A further series deals with Aspergillus parasiticus. Description: microbe, parasite or virus in culture. Conditions: 168 h, 50 μM of active ingredient, 7 days, fluorescence, read-out: inhibition of aflatoxines production. In kind it is cell-based.
The next series relates to Phakopsora pachyrhizi. Description: In vivo preventive test on Phakopsora pachyrhizi (soybean rust). Conditions: 50 ppm of active ingredient, evaluated 11 days after inoculation. As to the method: Solvent: 28.5 parts by weight of acetone
Emulsifier: 1.5 parts by weight of polyoxyethylene alkyl phenyl ether
One day after spraying, the plants are inoculated with an aqueous spore suspension of the causal agent of soybean rust (Phakopsora pachyrhizi).
The test is evaluated 11 days after the inoculation.

In the next series the test system is Fusarium proliferatum. Description: Inhibition of Fumonisin FB1 produced by Fusarium proliferatum. The class given is cell-based. Conditions: 120 h, read-out: inhibition of Fumonisin FB1 production.
The next series concerns Puccinia triticina. Description: In vivo curative test on Puccinia triticina (wheat). Particulars: 500 ppm of active ingredient, evaluated 8 days after inoculation.

The term logP denotes a log measure of how a compound divides between an organic and an aqueous phase. `Cn1nc(C(F)F)c(C(=O)N(Cc2c(C(F)(F)F)ccc(Cl)c2F)C2CC2)c1F` [Example 5] came in with a logP in [1] of 3.62. Also, the disease control in the series on Sphaerotheca fuliginea and in the series on Fusarium nivale was 100% throughout. This compound also came in with a mortality in % in the series on Tetranychus urticae of 80%.
In turn, `Cn1nc(C(F)F)c(C(=O)N(Cc2ccccc2SC(F)(F)F)C2CC2)c1F` [Example 30] yielded a log partition coefficient (logP) in [1] of 3.74. Besides, the mortality in % with Tetranychus urticae is 80%. The disease control in the series on Fusarium nivale came to 100%.
In turn, `CC(C)c1ccccc1CN(C(=O)c1c(C(F)F)nn(C)c1F)C1CC1` [Example 6] had a logP in series [1] of 3.35. Besides, the disease control in the series on Sphaerotheca fuliginea and in the series with Fusarium nivale was 100% throughout. Further, the “nematicidal activity (% reduction of galls vs untreated control)” value in the series on Meloidogyne incognita is 80%. In the series on Tetranychus urticae, the mortality in % is 80%.
In general, inhibition refers to the share of the control response that was lost under treatment. By chromatographic logP is commonly meant lipophilicity estimated from chromatographic retention. `Cn1nc(C(F)F)c(C(=O)N(Cc2ccccc2[Si](C)(C)C)C2CC2)c1F` [Example 3, N-cyclopropyl-3-(difluoromethyl)-5-fluoro-1-methyl-N-[2-(trimethylsilyl)benzyl]-1H-pyrazole-4-carboxamide]: the inhibition at 50 µM in the series with Aspergillus parasiticus is more than 80%. In [1], the chromatographic logP was 4.36.
Regarding `Cc1nn(C)c(F)c1C(=S)N(Cc1ccccc1[Si](C)(C)C)C1CC1` [N-cyclopropyl-5-fluoro-1,3-dimethyl-N-[2-(trimethylsilyl)benzyl]-1H-pyrazole-4-carbothioamide], in the series with Phakopsora pachyrhizi, the disease control entry is reported as “less than 85%”.
Take `Cn1nc(C(F)F)c(C(=O)N(Cc2ncc(C(F)(F)F)cc2Cl)C2CC2)c1F` [N-{[3-chloro-5-(trifluoromethyl)pyridin-2-yl]methyl}-N-cyclopropyl-3-(difluoromethyl)-5-fluoro-1-methyl-1H-pyrazole-4-carboxamide]: the inhibition at 50 µM in the series with Fusarium proliferatum was less than 55%.
The compound `Cn1nc(C(F)F)c(C(=O)N(Cc2c(Br)ccc(F)c2F)C2CC2)c1F` [Example 10] gave a log partition coefficient (logP) in series [1] of 3.21. Also, the disease control in the series on Sphaerotheca fuliginea and in the series on Fusarium nivale was 100% in each case.
As to `Cn1nc(C(F)F)c(C(=O)N(Cc2cc(Cl)ccc2I)C2CC2)c1F` [Example 23], the logP in [1] is listed as 3.83. Moreover, the disease control in the series with Sphaerotheca fuliginea and with Fusarium nivale was 100% in each case.
In the case of `CCc1ccccc1C(C)N(C(=O)c1c(C(F)F)nn(C)c1F)C1CC1` (stereo not shown) [Example 81], the logP in series [1] stood at 3.69. Besides, the disease control in the series on Sphaerotheca fuliginea and with Fusarium nivale was 100% each time.
With `Cn1nc(C(F)F)c(C(=S)N(Cc2ccccc2[Si](C)(C)C)C2CC2)c1F` [Example 38, N-cyclopropyl-3-(difluoromethyl)-5-fluoro-1-methyl-N-[2-(trimethylsilyl)benzyl]-1H-pyrazole-4-carbothioamide], the inhibition at 50 µM in the series on Aspergillus parasiticus was more than 80%. Besides, in series [1], the chromatographic logP was found to be 4.94. For the same compound, the disease control in the series with Sphaerotheca fuliginea stood at 100%.
In turn, `CC(C)c1ccc(Cl)cc1CN(C(=O)c1c(C(F)F)nn(C)c1F)C1CC1` [Example 29] had a logP in series [1] of 4.09. In addition, the disease control with Sphaerotheca fuliginea and in the series with Fusarium nivale was 100% in each case.
On to `Cn1nc(C(F)F)c(C(=O)N(Cc2cc(Cl)ccc2[Si](C)(C)C)C2CC2)c1F` [Example 24], for which the logP in series [1] is 4.81. Further, the disease control with Sphaerotheca fuliginea and in the series on Fusarium nivale was 100% in each case.
`Cn1nc(C(F)F)c(C(=O)N(Cc2cc(Cl)ccc2C2CC2)C2CC2)c1F` [Example 41] displayed a logP in series [1] of 3.87. In addition, the disease control in the series on Sphaerotheca fuliginea and with Fusarium nivale was 100% in each case.
For `CC(c1cccc2ccccc12)N(C(=O)c1c(C(F)F)nn(C)c1F)C1CC1` (stereo not shown) [N-cyclopropyl-3-(difluoromethyl)-5-fluoro-1-methyl-N-[1-(1-naphthyl)ethyl]-1H-pyrazole-4-carboxamide, reference compound], the disease control entry in the series on Puccinia triticina is listed as “less than 85%”; with Fusarium nivale, “less than 95%”.
In series [1], `Cn1nc(C(F)F)c(C(=O)N(Cc2cc(Cl)ccc2C(F)(F)F)C2CC2)c1F` [Example 1] gave a logP of 3.8. In addition, the disease control in the series with Sphaerotheca fuliginea and in the series on Fusarium nivale was 100% throughout. For the same compound, the mortality in % in the series with Tetranychus urticae worked out at 80%.
As to `CC(c1cc(Cl)cc(Cl)c1)N(C(=O)c1c(C(F)F)nn(C)c1F)C1CC1` (racemic) [Example 40], in [1], the lipophilicity (logP) came out at 4.04. This compound showed a mortality in % in the series with Tetranychus urticae of 80%. This compound also registered a disease control in the series on Fusarium nivale of 100%.
